Measurements as given in US20100143313A1, “HOMOGENEOUS DIFFERENTIATION OF HEPATOCYTE-LIKE CELLS FROM EMBRYONIC STEM CELLS” (THE GENERAL HOSPITAL CORPORATION, priority 2008, published 2010).

Assays:
Assay type in all cases: cell-based, murine
ESDE cells [1] = test: Albumin secretion of ESDE cells into culture media (ELISA); details: DMSO induction, low glucose
Experimental: (§1) FIGS. 3A and 3B are bar graphs showing albumin and urea secretion rates of hepatocyte-like cells. Albumin secretion was measured at various timepoints by ELISA (3A). Urea secretion was measured with a colorimetric assay (3B). […] Urea and albumin secretion rates increased up to forty days of culture. […] Values represent mean±SD of two experiments and repeated in triplicate.
(§2) The maturation of ESDE cells into functional hepatocytes was evaluated by measuring the secretion of albumin and urea into the culture media (FIG. 3). […] Neither albumin nor urea secretion was detectable before day twenty in any of the other conditions tested.
(§3) At day fourteen of culture, the ES cells were stimulated with the chemical agonists listed on Table 1 (above) in high glucose or low glucose DMEM supplemented with 10% FBS and 0.2 μM dexamethasone. The media with chemical agonists were exchanged every other day until day twenty. At day twenty of culture, the ES cells were cultured without the chemical agonists in high glucose or low glucose DMEM supplemented with 10% FBS and 0.2 μM dexamethasone. […]
(§4) Collected medium samples were analyzed for secreted concentrations of mouse albumin by ELISA. […] Urea content was determined with diacetyl monoxime using a commercially available kit (StanBio Laboratory, Boerne, Tex.). The absorbance was measured with a Thermomax microplate reader (Molecular Devices, Sunnyvale, Calif.).

ESDE cells [2] = test: Urea secretion of ESDE cells into culture media (colorimetric assay); details: DMSO-stimulated ESDE cells
Experimental: as §1, §2, §3, §4

[3] = test system: cytochrome P450 activity (CYP1A1); test: EROD assay for inducible cytochrome P450 activity; details: two-day exposure to 3-methylcholanthrene, day 36
Experimental: Day-thirty-four ES-derived cells were stimulated with 2 mM 3-methycholanthrene (3-MC) for two days. The conversion of ethyoxyresorufin to fluorescent resorufin was assayed on day thirty-six of culture. Values represent mean±SEM of three experiments and repeated in duplicate.
The EROD assay was used to measure inducible cytochrome P450 activity (CYP1A1) of the hepatocyte-like cells.
The drug metabolizing activity of the ES cell-derived hepatocytes were evaluated using an ethoxyresorufin 0-de-ethylase (EROD) assay. Day thirty-four ES cells were stimulated with 2 mM 3 methycholanthrene (3-MC) for two days. On day 36, the media was replaced with 10 μM ethoxyresorufin (Invitrogen) and 80 μM dicumarol (Sigma) in Earle's Balanced Salt Solution. Solution samples were collected at 5, 15, 25, and 35 minutes after the introduction of substrates. The increase in fluorescence intensity caused by conversion of ethyoxyresorufin to fluorescent resorufin estimates the CYP1A1 activity in hepatocytes.

ESDE cells [4] = test: RT-PCR gene expression of ESDE cells after agonist induction; details: for Transcriptional expression of tyrosine aminotransferase (Tat) / expression of albumin (Alb) and cytochrome P450 subunit 3a13 (Cyp3a13) mRNA: RT-PCR; for Transcriptional expression of tyrosine aminotransferase (Tat): over culture time; for expression of albumin (Alb) and cytochrome P450 subunit 3a13 (Cyp3a13) mRNA: day twenty-two, increased at day thirty
Experimental: Similarly, glucose-6-phosphatase (G6pc) mRNA expression could only be detected with DMSO or RA stimulation. […] Visceral endoderm marker Sox7 was also weakly expressed in every condition except with DMSO induction.
At day fourteen of culture, the ES cells were stimulated with the chemical agonists listed on Table 1 (above) in high glucose or low glucose DMEM supplemented with 10% FBS and 0.2 μM dexamethasone. The media with chemical agonists were exchanged every other day until day twenty. At day twenty of culture, the ES cells were cultured without the chemical agonists in high glucose or low glucose DMEM supplemented with 10% FBS and 0.2 μM dexamethasone. The ES cells were cultured up to day fifty with media exchange every other day.
RNA isolation was performed using the Nucleospin RNAII protocol (Clontech, Mountain View, Calif., USA). Following the removal of genomic DNA with DNase, the column was washed and RNA was eluted with distilled water. The RNA purity was quantified using the absorbance ratio at 260 nm (nucleic acids) and 280 nm (protein) and was greater than 1.9. One-Step RT-PCR kit (Qiagen, Valencia, Calif., USA) was used to analyze gene expression. Reactions were initiated using 10 ng RNA and 0.6 μM primer. RT reaction was conducted at 50° C. and 95° C. for 15 min. Three-step cycling was performed: denaturation at 94° C. for 30 s, annealing at 55° C. for 30 s, and extension at 72° C. for 1 min, with a final extension time of 10 min at 72° C. The number of cycles varied between 30 and 35. Following PCR, samples were run on a 2% agarose gel, stained with ethidium bromide, and imaged using the Fluor-X Multiimager (Bio-Rad, Hercules, Calif., USA). Mouse liver total RNA (Ambion, Austin, Tex., USA) was used as a control for hepatocyte gene expression. Markers: Foxa2, AFP, Sox 17, Albumin, GATA1, Runx2, Foxf1, NKx2.5, Tal1, Pax 6, AAT, CK8, CK18, TTR, CYP3A13, Brachyury, Goosecoid, β-actin.

ESDE cells [5] = test: Glycogen staining (periodic acid-Schiff); details: after thirty-two days of differentiation
Experimental: Rat primary hepatocytes are capable of secreting albumin at a rate of approximately 2.0 μg/hour/10^6 cells, and the mouse hepatocarcinoma cell line Hepal-6 can produce albumin at a rate of 4.7 μg/hour/10^6 cells. The ability of the ES-derived hepatocyte-like cells to produced and store glycogen was assessed using a periodic acid-Schiff stain. […] The capacity for the hepatocyte-like cells to actively synthesize glycogen was seen after the culture media was switched from the low-glucose differentiation media to high-glucose DMEM supplemented with 10% FBS and 0.2 μM dexamethasone for two days. More intense magenta staining of the hepatocyte-like cells was found after the two-day incubation in high-glucose media.
Periodic acid-Schiff staining kit was purchased from Sigma. Cells were fixed with 4% paraformaldehyde in PBS for 20 minutes at room temperature. Staining procedures were performed according to manufacturer's instruction.

[6] = test system: albumin promoter-driven GFP expression in ES-derived endoderm (ESDE) cells; test: Screening of agonists for albumin promoter-driven GFP expression in ES-derived endoderm (ESDE) cells, flow cytometry; details: agonist d14-d20, 2% DMSO, 1 μM Azacytidine, 1 μM Retinoic Acid, 100 μM SNAP, 1 μM A23187, 1 nM vasopressin, 200 μM IBMX, 2 mM phenobarbital, 10 mM nicotinamide, 0.1 μM PGE2; for Cell fraction of day 30 ES-derived cells positive for albumin promoter-driven GFP expression, High Glucose: high glucose DMEM; for Cell fraction of day 30 ES-derived cells positive for albumin promoter-driven GFP expression, Low Glucose: low glucose DMEM
Experimental: A transgenic ES cell for enhanced green fluorescence protein (GFP) driven by the albumin promoter was used or the purpose of quickly screening different stimulants for hepatic differentiation. After a total of 30 days of differentiation, the various agonists were evaluated for their ability to induce ES-derived endoderm (ESDE) to express the albumin gene. When the ESDE cells were cultured in high glucose conditions, none of the agonists tested were able to increase cell population fraction positive for GFP expression over 10% (Table 1):
Additionally, for the purpose of quickly screening different stimulants for hepatic differentiation, a transgenic ES cell for enhanced green fluorescence protein (GFP) driven by the albumin promoter was used for these preliminary studies. The transgenic murine J1 cell line was obtained from the National Cancer Center Research Institute (Tokyo, Japan). The murine ES cell line D3 (ATCC, Manassas, Va.) was also used to assess the differentiation of ES cells into endoderm and hepatic lineage cells. Undifferentiated ES cells were cultured in Knockout DMEM (Gibco), supplemented with 15% replacement serum, 4 mM L-glutamine (Gibco), 100 U/mL penicillin (Gibco), 100 U/ml streptomycin (Gibco), 10 μg/mL gentamycin (Gibco), 1000 units/mL Leukemia Inhibitory Factor (LIF; Chemicon International, Temecula, Calif.), and 0.1 mM 2-mercaptoethanol (Gibco) on 0.1% gelatin-coated T-75 tissue culture flasks. Culture medium was replaced every day and cells were passaged at dilutions ranging from 1:5 to 1:20 at least once a week. Cells were cultured at 37° C. and in a 5% CO2 incubator.
To isolate the ES-derived cells in co-culture, the ES cells cultured on top of collagen sandwiched hepatocytes were incubated with dispase (1 mg/mL) (Gibco) for 30-60 min at 37° C. After incubation, the ES-derived cells were detached by gentle pipetting. The collagen-sandwiched hepatocytes remained at the bottom of the dish, thus allowing separation of the ES-derived cells from the primary hepatocytes. The isolated ES-derived cells were replated (day 10) on collagen gel coated 35-mm dishes at a density of 400,000 ES-derived cells per dish and cultured in high glucose DMEM supplemented with 10% FBS, 100 ng/mL oncostatin-M (Sigma), 0.2 μM dexamethasone (Sigma), and insulin/transferrin/selenious acid (5 μg/mL, 5 μg/mL, 5 ng/mL, respectively) (BD Biosciences, San Jose, Calif.). The replated cells were allowed to recover for four days before induction of hepatocyte differentiation. […]
Alternatively, Cells were detached from the collagen surface using 10 U/ml collagenase and 1 U/ml dispase in serum-free DMEM for 30 minutes. […] Collected cells were analyzed by flow cytometry (Epics Altra; Becton Dickinson). FACS data was analyzed using CellQuest software. […]

Row | expression of albumin (Alb) and cytochrome P450 subunit 3a13 (Cyp3a13) mRNA (ESDE cells [4]) | Structure (SMILES) | glucose-6-phosphatase (G6pc) mRNA expression (ESDE cells [4]; RT-PCR after induction) | Transcriptional expression of tyrosine aminotransferase (Tat) (ESDE cells [4]) | Cell fraction of day 30 ES-derived cells positive for albumin promoter-driven GFP expression, High Glucose [6] | Cell fraction of day 30 ES-derived cells positive for albumin promoter-driven GFP expression, Low Glucose [6] | also measured
1 | could be detected by day twenty-two | C[S+](C)[O-] [DMSO, Dimethyl sulfoxide] | detected | highest at day thrity | – | – | albumin secretion rate (ESDE cells [1]; day forty): 3.09 μg/hour/10^6 cells; albumin secretion rate (ESDE cells [1]; day twenty-two): 0.34 μg/hour/10^6 cells; urea secretion rate (ESDE cells [2]; day 22): 0.36 μg/hour/106 cells; urea secretion rate (ESDE cells [2]; day forty): 2.45 μg/hour/10^6 cells; EROD activity compared to cells cultured in high glucose media without DMSO stimulation [3]: 20 fold; EROD activity over cells cultured in low glucose media without DMSO stimulation [3]: 4.5 fold; Definitive endoderm marker Sox17 expression (ESDE cells [4]; RT-PCR after induction): down-regulated; glycogen stores (periodic acid-Schiff stain) (ESDE cells [5]): visible glycogen stores
2 | – | CCCCC[C@H](O)/C=C/[C@H]1[C@H](O)CC(=O)[C@@H]1C/C=C\CCCC(=O)O [PGE2, prostaglandin E2] | – | – | 7.8% | 57% | –
3 | could be detected by day twenty-two | CC1=C(/C=C/C(C)=C/C=C/C(C)=C/C(=O)O)C(C)(C)CCC1 [Retinoic Acid, all-trans retinoic acid] | detected | highest at day thrity | – | – | –
4 | – | NC(=O)CC[C@@H]1NC(=O)[C@H](Cc2ccccc2)NC(=O)[C@H](Cc2ccc(O)cc2)NC(=O)[C@@H](N)CSSC[C@@H](C(=O)N2CCC[C@H]2C(=O)N[C@@H](CCCN=C(N)N)C(=O)NCC(N)=O)NC(=O)[C@H](CC(N)=O)NC1=O [vasopressin] | – | – | 4.5% | 59% | –
